Measured values: ChEMBL document CHEMBL1201862, “PubChem BioAssay data set” (2004)
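The compound was tested at five concentrations on cells cultured in 96-well plates, with a 48-hour exposure period. Abbreviation: GI50, concentration required for 50% inhibition of growth.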 Calls of active or inactive are those of the source. No stated cut-off is given here; in the data, active = GI50 up to about 1.1 µM and inactive = higher.

What was measured:
Assay in all cases: DTP human tumour cell line panel, 48 h
HCT-116 = system: HCT-116
HT-29 = system: HT-29
M14 = system: M14
NCI-H226 = system: NCI-H226
OVCAR-4 = system: OVCAR-4
RPMI-8226 = system: RPMI-8226
SF-539 = system: SF-539
SK-MEL-28 = system: SK-MEL-28
SK-MEL-2 = system: SK-MEL-2
SN12C = system: SN12C
SNB-19 = system: SNB-19
SW-620 = system: SW-620
UACC-257 = system: UACC-257
UO-31 = system: UO-31
NCI-H460 = system: NCI-H460
OVCAR-5 = system: OVCAR-5
RXF 393 = system: RXF 393

Measured: GI50

CN(C)CCCCC1CCN(CC(=O)N2c3ccccc3NC(=O)c3ccccc32)CC1
inactive: HCT-116 > 100 µM | HT-29 61.2 µM | M14 28.1 µM | NCI-H226 > 100 µM | OVCAR-4 > 100 µM | RPMI-8226 > 100 µM | SF-539 > 100 µM | SK-MEL-28 > 100 µM | SK-MEL-2 > 100 µM | SN12C > 100 µM | SNB-19 > 100 µM | SW-620 > 100 µM | UACC-257 > 100 µM | UO-31 > 100 µM

CCCN1C(=O)C/C(=C\C(C)=O)Nc2ccccc21
inactive: HCT-116 > 100 µM | HT-29 > 100 µM | M14 > 100 µM | NCI-H226 37.2 µM | NCI-H460 > 100 µM | OVCAR-4 > 100 µM | OVCAR-5 > 100 µM | RXF 393 > 100 µM | SF-539 > 100 µM | SK-MEL-28 > 100 µM | SK-MEL-2 > 100 µM | SN12C > 100 µM | SNB-19 > 100 µM | SW-620 > 100 µM | UO-31 > 100 µM

N#C/N=C1\NCCC(=O)N1CCc1c[nH]c2ccccc12
inactive: HCT-116 > 100 µM | HT-29 > 100 µM | M14 > 100 µM | NCI-H226 > 100 µM | OVCAR-4 > 100 µM | RPMI-8226 > 100 µM | RXF 393 > 100 µM | SF-539 > 100 µM | SK-MEL-28 > 100 µM | SN12C > 100 µM | SNB-19 > 100 µM | SW-620 > 100 µM | UACC-257 > 100 µM | UO-31 > 100 µM

ClCCCCOC1CCCCO1 (configuration not stated)
inactive: HCT-116 > 100 µM | HT-29 > 100 µM | M14 > 100 µM | NCI-H226 > 100 µM | NCI-H460 > 100 µM | OVCAR-4 > 100 µM | OVCAR-5 > 100 µM | RXF 393 > 100 µM | SF-539 > 100 µM | SK-MEL-28 > 100 µM | SK-MEL-2 > 100 µM | SN12C > 100 µM | SNB-19 > 100 µM | SW-620 > 100 µM | UACC-257 > 100 µM | UO-31 > 100 µM

O=C(c1ccccc1)c1c(-c2ccccc2)sc2nc3ccccc3nc12
inactive: HCT-116 > 100 µM | HT-29 > 100 µM | M14 > 100 µM | NCI-H226 20.3 µM | NCI-H460 > 100 µM | OVCAR-4 37.8 µM | OVCAR-5 > 100 µM | RPMI-8226 > 100 µM | RXF 393 45.4 µM | SF-539 47.9 µM | SK-MEL-28 > 100 µM | SK-MEL-2 > 100 µM | SN12C > 100 µM | SNB-19 55 µM | SW-620 > 100 µM | UACC-257 > 100 µM

Cc1cc([N+](=O)[O-])ccc1Nc1cccc(Cl)c1C
inactive: HCT-116 16.1 µM | HT-29 17.6 µM | M14 15.5 µM | NCI-H226 18.9 µM | OVCAR-4 16.5 µM | OVCAR-5 14.7 µM | RXF 393 17.7 µM | SK-MEL-28 16.7 µM | SK-MEL-2 14.9 µM | SN12C 16.7 µM | SNB-19 19.1 µM | SW-620 24.3 µM | UACC-257 18 µM | UO-31 11.7 µM

O=c1cccccc1NCCCCCCCCNc1cccccc1=O
inactive: HCT-116 9.62 µM | HT-29 > 100 µM | M14 > 100 µM | NCI-H226 > 100 µM | NCI-H460 85.7 µM | OVCAR-5 > 100 µM | RPMI-8226 6.56 µM | RXF 393 > 100 µM | SF-539 > 100 µM | SK-MEL-2 > 100 µM | SN12C > 100 µM | SNB-19 38.1 µM | SW-620 > 100 µM | UACC-257 > 100 µM | UO-31 35.4 µM

O=c1cc2ccccc2nn1-c1ccccc1Cl
inactive: HCT-116 74.5 µM | HT-29 > 100 µM | M14 > 100 µM | NCI-H226 > 100 µM | NCI-H460 > 100 µM | OVCAR-4 > 100 µM | OVCAR-5 > 100 µM | RPMI-8226 42.4 µM | SF-539 > 100 µM | SK-MEL-28 > 100 µM | SK-MEL-2 > 100 µM | SN12C > 100 µM | SNB-19 > 100 µM | SW-620 > 100 µM | UACC-257 > 100 µM | UO-31 26.2 µM

CCC(/C=C/c1ccccc1)=N\N=C(\C=C\c1ccccc1)CC
inactive: HCT-116 > 100 µM | HT-29 > 100 µM | M14 > 100 µM | NCI-H226 > 100 µM | NCI-H460 > 100 µM | OVCAR-4 > 100 µM | OVCAR-5 > 100 µM | RPMI-8226 > 100 µM | SK-MEL-28 > 100 µM | SK-MEL-2 > 100 µM | SN12C > 100 µM | SNB-19 > 100 µM | SW-620 > 100 µM | UACC-257 > 100 µM | UO-31 > 100 µM

O=C(c1ccccc1)c1oc2ccc(Br)cc2c1-c1cnn(-c2ccccc2)c1
inactive: HT-29 > 100 µM | M14 > 100 µM | NCI-H460 > 100 µM | OVCAR-4 > 100 µM | OVCAR-5 > 100 µM | RPMI-8226 54.7 µM | RXF 393 > 100 µM | SK-MEL-28 > 100 µM | SK-MEL-2 > 100 µM | SN12C > 100 µM | SNB-19 > 100 µM | SW-620 > 10 µM | UACC-257 > 100 µM | UO-31 > 100 µM

CCOC(=O)C(=Cc1cccnc1C)C(=O)OCC
inactive: HCT-116 5.01 µM | HT-29 5.15 µM | M14 11.2 µM | NCI-H226 31.8 µM | NCI-H460 15.6 µM | OVCAR-4 11 µM | OVCAR-5 17.9 µM | RXF 393 4.35 µM | SF-539 6.15 µM | SK-MEL-28 17.5 µM | SK-MEL-2 4.08 µM | SN12C 4.43 µM | SNB-19 11.3 µM | SW-620 5.32 µM | UACC-257 8.09 µM | UO-31 5.16 µM

O=C1c2ccccc2-c2cccc3ccc(Cc4ccccc4)c1c23
inactive: HCT-116 > 100 µM | HT-29 > 100 µM | M14 > 100 µM | NCI-H460 > 100 µM | OVCAR-4 84.3 µM | OVCAR-5 > 100 µM | RPMI-8226 > 100 µM | RXF 393 > 100 µM | SF-539 > 100 µM | SK-MEL-28 > 100 µM | SK-MEL-2 > 100 µM | SN12C > 100 µM | SNB-19 > 100 µM | SW-620 > 100 µM | UACC-257 > 100 µM | UO-31 > 100 µM

CN(C)CCCNc1ccnc2c([N+](=O)[O-])cccc12
inactive: HCT-116 15.3 µM | HT-29 3.56 µM | M14 29.2 µM | NCI-H226 > 100 µM | NCI-H460 15.5 µM | OVCAR-4 15.2 µM | OVCAR-5 > 10 µM | RPMI-8226 21.6 µM | SF-539 20.7 µM | SK-MEL-28 95.7 µM | SK-MEL-2 > 10 µM | SN12C 14.6 µM | SNB-19 23.4 µM | SW-620 15.2 µM | UACC-257 15.5 µM | UO-31 38.7 µM
